≈ marks a conversion by molar mass, not a printed value.
How the values were obtained:
[1] = test system: barnyard grass (Echinochloa crus-galli); experiment: Experiment 1: herbicidal effects against barnyard grass (pot test, emulsifiable concentrate); format: in vivo; conditions: for herbicidal activity (barnyard grass): 25 days
barnyard grass = experiment: Experiment 2: herbicidal effects against barnyard grass (pot test, granules); format: in vivo, Echinochloa crus-galli; conditions: 2.5 leaf-stage, 25 days
broad-leaf weeds = experiment: Experiment 2: herbicidal effects against broad-leaf weeds (pot test, granules); format: in vivo; conditions: 25 days
[2] = test system: Hotarui (Scirpus juncoides); experiment: Experiment 2: herbicidal effects against Hotarui (pot test, granules); format: in vivo; conditions: 25 days
[3] = test system: Mizugayatsuri (Cyperus serotinus); experiment: Experiment 2: herbicidal effects against Mizugayatsuri (pot test, granules); format: in vivo; conditions: 25 days
[4] = Experiment 3: acute toxicity to fish; format: in vivo, Black-carp fry; conditions: carp, water
Protocol: With respect to the compounds according to the present invention and the comparative compounds (Compound 10, Compound 12 and Compound 13), there were conducted tests on acute toxicity to carps.
In 25-liter water tanks made of glass was charged 20 liters of water. 12 Black-carp fry were released to each of the water tanks and bred while feeding for 7 days. Then, the whole quantity of water in each of the tanks was replaced with fresh water, and feeding to the carps was stopped. After three days, a prescribed amount of 1 weight % solution of a test compound in acetone was added to water in the water tank.
The number of survival fish in each tank was counted after 24 hours, 48 hours and 96 hours, successively.
The TLm (median tolerance limit=lethal concentration 50%) was determined by the Doudorff's method (Sewage & Ind. Wastes 23 (1951) 1380-1397).

[5] = Experiment 4: subacute toxicity to fish; format: in vivo, 2-year-old carps; conditions: carp, water; 0.2 ppm; 3 weeks; read-out: Survival rate after 3 weeks
Method in brief: (§1)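 Two-year-old carps of about 20 g, ten per tank, were held 3 weeks under continuous flow of water carrying 0.2 ppm test compound, with a 6 h residence time. Hematocrit (erythrocyte volume %) of survivors was then measured.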

carps = experiment: Experiment 4: subacute toxicity to fish; format: in vivo, 2-year-old carps; conditions: 0.2 ppm; 3 weeks
Method in brief: as §1

paddy field weeds = experiment: Experiment 2: herbicidal effects against paddy field weeds, overall; format: in vivo; conditions: compared with Molinate (Compound 13)
rice plants = conditions: in vivo

SMILES: CC1CCCCN1C(=O)SCCCCl (stereo not shown) [Compound 12, reference compound]
- herbicidal activity (barnyard grass) ([1]; 1.5 leaf-stage of barnyard grass, 150 g/10a.): 5 (more than 90%)
- herbicidal activity (barnyard grass) ([1]; 1.5 leaf-stage of barnyard grass, 300 g/10a.): 5 (more than 90%)
- herbicidal activity (barnyard grass) ([1]; 1.5 leaf-stage of barnyard grass, 600 g/10a.): 5 (more than 90%)
- herbicidal activity (barnyard grass) ([1]; 3 leaf-stage of barnyard grass, 150 g/10a.): 5 (more than 90%)
- herbicidal activity (barnyard grass) ([1]; 3 leaf-stage of barnyard grass, 300 g/10a.): 5 (more than 90%)
- herbicidal activity (barnyard grass) ([1]; 3 leaf-stage of barnyard grass, 600 g/10a.): 5 (more than 90%)
- herbicidal activity (in words) ([1]; barnyard grass): sufficient herbicidal activities
- herbicidal activity (barnyard grass) (barnyard grass; 150 g/10a.): 5 (more than 90%)
- herbicidal activity (barnyard grass) (barnyard grass; 300 g/10a.): 5 (more than 90%)
- herbicidal activity (barnyard grass) (barnyard grass; 600 g/10a.): 5 (more than 90%)
- Herbicidal activity broad-leaf weeds (broad-leaf weeds; 150 g/10a.): 5 (more than 90%)
- Herbicidal activity broad-leaf weeds (broad-leaf weeds; 300 g/10a.): 5 (more than 90%)
- Herbicidal activity broad-leaf weeds (broad-leaf weeds; 600 g/10a.): 5 (more than 90%)
- Herbicidal activity Hotarui (Scirpus juncoides) ([2]; 150 g/10a.): 4 (70 to 89%)
- Herbicidal activity Hotarui (Scirpus juncoides) ([2]; 300 g/10a.): 5 (more than 90%)
- Herbicidal activity Hotarui (Scirpus juncoides) ([2]; 600 g/10a.): 5 (more than 90%)
- Herbicidal activity Mizugayatsuri (Cyperus serotinus) ([3]; 150 g/10a.): 4 (70 to 89%)
- Herbicidal activity Mizugayatsuri (Cyperus serotinus) ([3]; 300 g/10a.): 4 (70 to 89%)
- Herbicidal activity Mizugayatsuri (Cyperus serotinus) ([3]; 600 g/10a.): 5 (more than 90%)
- LC50 at 24 h ([4]; 24 hrs, read-out: Median lethal concentration TLm (24hrs)): 1 µg/mL (≈ 4.24 µM)
- LC50 at 48 h ([4]; 48 hrs, read-out: Median lethal concentration TLm (48hrs)): < 0.5 µg/mL
- survival at 504 h [5]: 70%
- Average Hematocrit Value of survival fish (carps): 19%
- subacute toxicity to carps (in words) (carps): high subacute toxicity to carps
- survival of carps (in words) (carps): extremely low
- symptoms of anemia in carps (in words) (carps): remarkable symptons of anemia
- herbicidal activity (in words) (paddy field weeds): excellent herbicidal activities
- harmful effects to rice plants (in words) (rice plants): without harmful effects to rice plants

From patent publication US4400199A, “Thiolcarbamate compounds and their use as herbicides” (priority 1981, dated 1983)
